Results taken from patent publication US20090312373A1, “METHODS FOR THE TREATMENT OF CANCER USING PIPERLONGUMINE AND PIPERLONGUMINE ANALOGS” (The General Hospital Corporation, priority 2008, published 2009).

How the values were obtained:
[1] = system: CDIP promoter containing p53 binding site; test: CDIP promoter/p53 responsive site luciferase reporter screen; assay type: cell-based, human
Text: We screened a small molecule library of biologically active compounds using a Luciferase reporter gene construct fused with CDIP (Cell Death Involved p53 target) promoter/p53 responsive site as a read-out assay. p53 transcriptional activators were identified from screening the diversity set of the biologically active library using U2OS human cancer cells expressing the p53-responsive reporter. Briefly, a reporter construct was created that included the CDIP promoter operatively linked to the luc2 luciferase reporter gene. We stably expressed a human p53 reporter, luciferase2/Puro+CDIP promoter, which carries the firefly luciferase gene under the control of p53-responsive elements of CDIP promoter, in U2OS cells. Stable cell lines were produced that expressed the reporter construct, and the cells were plated in 384 well plates at ˜10,000 cells per well. Test compounds were added to the plated cells at two replicates per compound, and the cells were incubated with the compounds for 24 hours. The data were analyzed using Spotfire. The initial screen identified several compounds that activated p53-responsive reporter expression during 48 hours.

human cancer cell lines = test: Cell growth inhibition and cell death/apoptosis in a panel of human cancer cell lines; assay type: cell-based
Text: We evaluated the ability of piperlongumine to induce apoptosis in a panel of human cancer cells (>40 human cancer cell lines) including cell lines with both wt and mutant p53 status, including non-functional mutants (See Table 1).

[2] = system: EJ human bladder cancer cell xenografts; test: EJ human bladder cancer xenograft in nude mice; assay type: in vivo, mouse
Protocol: We tested piperlongumine in colon tumor, breast, melanoma or bladder tumor xenograft-bearing mice to evaluate the anti-tumor effect of piperlongumine. We examined EJ human bladder cancer cell xenografts (non-functional p53) to evaluate anti-tumor effects. A total of 2×10^6 EJ cells or SW480 cells were implanted subcutaneously on opposite site flanks in each of six nude/nude mice in each group. When tumor masses grew to ˜5-10 mm in diameter, piperlongumine was administered intraperitoneally (28 ug per each intraperitoneal administration, total 1.2 mg/kg) every 48 hours for 12 days (6 times total).

[3] = system: mouse B16-F10 melanoma cells; test: B16-F10 mouse melanoma in B6 wild type mice; assay type: in vivo; conditions: 28 ug i.p. every 48 hours for 12 days (total 1.2 mg/kg); compared to DMSO
Protocol: We tested the effectiveness of piperlongumine in wild type mice using mouse B16-F10 melanoma cells. A total 2×10^6 cells were implanted subcutaneously on opposite site flanks in each of 12 B6 wild type mice in each group. When tumor masses grew to ˜5-10 mm in diameter, piperlongumine was administered intraperitoneally (28 ug per each intraperitoneal administration, total 1.2 mg/kg) every 48 hours for 12 days (6 times total).

[4] = system: EJ bladder carcinoma cells and HCT116 colon carcinoma cells; test: Cell death in transformed cancer cells; assay type: cell-based, human; conditions: 2.5 μM and 10 μM
MMTV-PyVT mammary tumor = test: MMTV-PyVT spontaneous mammary tumor mouse model; assay type: in vivo
Text: MMTV-PvVT (FVB/N-Tg) transgenic mice develop multifocal mammary tumor (from hyperplasia to metastatic) with a high incidence of metastasis (Mice were obtained from the NCI repository). This mouse model has been widely used for the correlation studies of human cancer (Guy et al., Moll. Cell. Biol. 12: 954-961, 1992). In addition, this onco-mouse model has been used to evaluate the effectiveness of potential drug therapies. Generally, due to aggressiveness of tumor growth and spread in this mouse-model, only a combination of chemo-drugs is effective in tumor growth inhibition. MMTV-PyVT mice were maintained until mammary tumor size reached to 6 mm, and then piperlongumine (2.4 mg/kg) or vehicle (DMSO) was given daily by i.p. for 13 days. Tumor size was measured every 4 days (See FIGS. 31 and 32).
We compared the anti-tumor activity of piperlongumine (SP2007) with taxol, a well known chemo drug, in the MMTV-PyVT tumor mouse model as described above (8 mice per group). When tumor sizes grew to ˜5-6 mm in diameter, SP2007 (2.4 mg/kg/day) or Taxol (Paclitaxel, 10 mg/kg/day) was administered intraperitoneally (I.P.) daily for two weeks. After two weeks treatment, mice were sacrificed, and mammary tumors excised and the tumor sizes measured. […] The size of the grossly dissected tumors was measured using the formula: mean diameter=(A+B)/2.

CDIP = test: Western blot of CDIP expression in U2OS cells containing wt-p53; assay type: cell-based, human; conditions: 5 μM and 10 μM
Protocol: Western blot analyses of CDIP expression in human cancer cells containing wt-p53 treated with piperlongumine (SP2007) (5 μM and 10 μM) is shown in FIG. 38. Beta-actin expression was used as a loading control.

Twist and N-cadherin = test: Histological examination of Twist and N-cadherin in MMTV-PyVT mammary tumors; assay type: in vivo, mouse; conditions: i.p. total 2.4 mg/kg daily for two weeks
Protocol: A scheme for piperlongumine (SP2007)-mediated repression of Twist expression and its downstream targets that are involved in tumor invasion/metastasis is presented in FIG. 39A. […] U2OS and EJ cells were treated with SP2007 at two concentrations (10 μM and 20 μM) as well as with DMSO as a solvent control. After 20 hours, cell lysates were extracted and western blotting was performed against Twist, N-cadherin and p120 catenin (Zymed and Sigma Aldrich). […] Female MMTV-PyVT mice at 8-9 weeks age were chosen for the studies. When tumor sizes grew to ˜5-6 mm in diameter, SP2007 or DMSO was administered intraperitoneally (I.P., total 2.4 mg/kg of SP2007) daily for two weeks. After two weeks treatment, mice were sacrificed and mammary tumors excised and processed for histological examination.

[5] = system: EJ bladder carcinoma and U2OS osteosarcoma cell lines; test: DNA damage in EJ bladder carcinoma and U2OS osteosarcoma cell lines; assay type: cell-based, human
Text: The conditions and time of exposure are indicated in the legend of the figure.

[6] = Precipitation on dilution of DMSO solution; assay type: physicochemical; conditions: diluted 1:10 in phosphate buffered saline or water
Protocol: To avoid toxicity, piperlongumine should be used at less than 2.5 mg/kg in mice. The skilled person will know how to formulate the compounds of the invention in accordance with the solubility by selection of appropriate carriers, solubilizers, etc.

[7] = 2.4 mg/kg daily i.p. for 13 days

## COc1cc(/C=C/C(=O)N2CCC=CC2=O)cc(OC)c1OC [piperlongumine, N-(3,4,5,-trimethoxycinnamoyl)-Δ^3-piperidine-2-one]
[1]; 10 μM, U2OS cells
  luciferase activity of the CDIP promoter containing p53 binding site: significantly increased
[1]; among natural compound candidates, U2OS reporter cells
  composite Z value in the screen: highest composite Z value
Human cancer cell lines; HCT116 cells
  sub-G1 apoptotic population of cells: increased
Human cancer cell lines; various human cancer cells, regardless of p53 status
  potencies for tumor cell growth inhibition and cell death/apoptosis: 2.5 to 20 µM
[2]; 28 ug i.p. every 48 hours for 12 days (total 1.2 mg/kg), compared to DMSO
  anti-tumor effect: significant anti-tumor effects
[2]; tumor mice
  blood vessel formation (angiogenesis) in the tumors: strongly inhibited
  expression of apoptosis genes (p21, PUMA, Caspase 3) in tumor-mice: enhanced
[3]
  anti-tumor effect: significant anti-tumor effects
[4]
  cell death in transformed cancer cells: induced cell death
MMTV-PyVT mammary tumor; [7]
  multiple tumor growth in spontaneous tumor model: inhibits multiple tumor growth
  tumor growth in spontaneous mouse model of breast cancer: inhibits tumor growth
MMTV-PyVT mammary tumor; 2.4 mg/kg/day i.p. daily for two weeks, compared to DMSO
  anti-tumor effect (mammary tumor size): Significant anti-tumor effects
MMTV-PyVT mammary tumor; SP2007 2.4 mg/kg/day i.p. for two weeks
  health of mice during treatment: remained healthy throughout the treatment time
MMTV-PyVT mammary tumor; SP2007 2.4 mg/kg/day or Taxol 10 mg/kg/day i.p. for two weeks
  secondary tumors: No secondary tumors were observed
CDIP
  CDIP expression: induces CDIP
Twist and N-cadherin
  N-cadherin expression in mammary tumors: inhibits N-cadherin expression
  Twist expression in mammary tumors: inhibits Twist expression
[5]
  DNA damage (phosphorylated gamma-H2AX levels): results in the induction of DNA damage
[6]
  concentration in DMSO that precipitated out when diluted 1:10: more than 0.25 mg/ml
